Earlier results, collected in patent US20110008431A1, “THERAPEUTIC TABLET FOR POSTHERPETIC NEURALGIA AND METHOD OF TREATING POSTHERPETIC NEURALGIA” (TOYO BOSEKI KABUSHIKI KAISHA, priority 2007, published 2011).

Test system: patient with neuropathic pain
Conditions: devazepide in combination with an opioid analgesic agent such as morphine, Patent Document 1

**Q.** For `CN1C(=O)[C@@H](NC(=O)c2cc3ccccc3[nH]2)N=C(c2ccccc2)c2ccccc21` [devazepide], which “subjects who attained pain relief” value is on record?
**A.** The value was 10 of 41.
